SMILES strings stand for the structures.

Usually EC50 stands for the concentration at which the effect is half-maximal.

Assay [1] concerns the target T1, human TLR7 (Homo sapiens, UniProt Q9NYK1).
T1 construct: host or cells: HEK293 reporter cells
T1 sequence (Q9NYK1 27-1049): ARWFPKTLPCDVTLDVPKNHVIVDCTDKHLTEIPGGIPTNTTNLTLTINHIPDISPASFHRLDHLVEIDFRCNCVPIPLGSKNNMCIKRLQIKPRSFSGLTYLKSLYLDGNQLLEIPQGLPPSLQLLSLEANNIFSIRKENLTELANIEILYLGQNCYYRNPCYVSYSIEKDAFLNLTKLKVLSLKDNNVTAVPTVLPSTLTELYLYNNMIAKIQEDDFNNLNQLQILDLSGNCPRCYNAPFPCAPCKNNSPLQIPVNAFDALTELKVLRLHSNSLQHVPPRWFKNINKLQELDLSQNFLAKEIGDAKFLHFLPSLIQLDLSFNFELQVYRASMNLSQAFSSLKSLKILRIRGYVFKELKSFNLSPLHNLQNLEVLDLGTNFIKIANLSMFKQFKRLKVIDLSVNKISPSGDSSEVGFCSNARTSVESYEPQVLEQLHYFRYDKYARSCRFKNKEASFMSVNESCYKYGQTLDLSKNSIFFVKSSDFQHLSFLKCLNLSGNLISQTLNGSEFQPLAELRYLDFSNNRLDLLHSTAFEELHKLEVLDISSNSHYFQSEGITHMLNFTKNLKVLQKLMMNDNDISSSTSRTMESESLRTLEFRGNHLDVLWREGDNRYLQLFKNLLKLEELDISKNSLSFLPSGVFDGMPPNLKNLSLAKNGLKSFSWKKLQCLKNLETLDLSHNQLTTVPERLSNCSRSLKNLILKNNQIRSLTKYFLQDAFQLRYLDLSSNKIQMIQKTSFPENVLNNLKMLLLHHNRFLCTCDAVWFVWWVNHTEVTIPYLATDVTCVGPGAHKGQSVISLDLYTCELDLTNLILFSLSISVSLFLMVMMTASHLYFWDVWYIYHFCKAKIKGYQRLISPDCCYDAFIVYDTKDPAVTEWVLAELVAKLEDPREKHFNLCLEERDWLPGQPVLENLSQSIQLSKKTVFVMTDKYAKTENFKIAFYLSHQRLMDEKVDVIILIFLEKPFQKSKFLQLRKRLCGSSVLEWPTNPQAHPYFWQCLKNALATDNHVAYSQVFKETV
The assay is described as follows: HEK293 NFKB reporter cells expressing human TLR7 (HEK Reporter Assay). Type of assay: cell-based. The conditions noted are these: read-out: HEK293 hTLR7 EC50. How it is done:
(§1) Each compound was synthesized and purified by the methods in the Examples provided herein, characterized by mass spectrometry, and shown to have the mass indicated. Activity against HEK293 NFKB reporter cells expressing human TLR7 or human TLR8 was measured according to method described in Example 67.
(§2) Example 67: HEK Reporter Assay
(§3) HEK293 reporter cells expressing human TLR7 or human TLR8 were purchased from Invivogen and vendor protocols were followed for cellular propagation and experimentation. Briefly, cells were grown to 80-85% confluence at 5% CO2 in DMEM supplemented with 10% FBS, Zeocin, and Blasticidin. Cells were then seeded in 96-well flat plates at 4×10^4 cells/well with substrate containing HEK detection medium and immunostimulatory molecules. Activity was measured using a plate reader at 620-655 nm wavelength.

Assay [2] has as its target T2, human TLR8 (Homo sapiens, UniProt Q9NR97).
T2 construct: host or cells: HEK293 reporter cells
T2 sequence (Q9NR97 27-1041): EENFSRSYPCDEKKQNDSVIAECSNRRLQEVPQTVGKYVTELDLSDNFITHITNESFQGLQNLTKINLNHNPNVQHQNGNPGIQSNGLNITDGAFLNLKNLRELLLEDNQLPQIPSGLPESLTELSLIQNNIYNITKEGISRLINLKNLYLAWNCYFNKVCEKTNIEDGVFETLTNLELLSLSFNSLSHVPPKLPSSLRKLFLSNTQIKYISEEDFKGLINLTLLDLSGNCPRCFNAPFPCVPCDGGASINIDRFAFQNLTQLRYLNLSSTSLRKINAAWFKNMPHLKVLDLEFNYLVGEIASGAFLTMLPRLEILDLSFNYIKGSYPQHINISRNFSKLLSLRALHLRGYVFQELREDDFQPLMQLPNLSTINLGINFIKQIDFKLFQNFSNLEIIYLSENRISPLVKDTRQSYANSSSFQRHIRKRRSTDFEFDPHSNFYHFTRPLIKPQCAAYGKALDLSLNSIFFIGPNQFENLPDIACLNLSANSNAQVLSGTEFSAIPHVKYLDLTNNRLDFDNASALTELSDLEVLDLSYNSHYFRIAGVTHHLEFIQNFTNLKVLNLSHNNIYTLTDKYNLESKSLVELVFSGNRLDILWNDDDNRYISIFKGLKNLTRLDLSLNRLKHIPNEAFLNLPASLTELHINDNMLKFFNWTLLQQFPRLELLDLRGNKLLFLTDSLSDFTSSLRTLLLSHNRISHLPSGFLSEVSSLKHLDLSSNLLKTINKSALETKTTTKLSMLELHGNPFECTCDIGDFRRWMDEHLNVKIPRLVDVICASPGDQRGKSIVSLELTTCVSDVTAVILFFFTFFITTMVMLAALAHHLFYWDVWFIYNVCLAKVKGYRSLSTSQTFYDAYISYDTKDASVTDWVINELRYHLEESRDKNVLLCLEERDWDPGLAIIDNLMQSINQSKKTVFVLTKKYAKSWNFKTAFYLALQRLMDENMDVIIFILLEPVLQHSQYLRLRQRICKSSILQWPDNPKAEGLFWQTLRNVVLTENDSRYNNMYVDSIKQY
The assay is described as follows: HEK293 NFKB reporter cells expressing human TLR8 (HEK Reporter Assay). In kind it is cell-based. The conditions noted are these: read-out: HEK293 hTLR8 EC50. As for the experimental part: as §1, §2, §3
(In general: A reporter such as luciferase makes a cellular process visible.)

In the case of `CCCN(CCC)C(=O)C1=Cc2ccc(-c3cccc(S(=O)(=O)Nc4nccs4)c3)cc2N=C(N)C1` [Bz-35], the EC50 in assay [1] and in assay [2] was greater than 9 µM each time.
`CCCN(CCC)C(=O)C1=Cc2ccc(-c3cccc(S(=O)(=O)NC(=O)c4ccccc4)c3)cc2N=C(N)C1` [Bz-37]: the EC50 in assay [1] and in assay [2] was greater than 9 µM each time.
Consider `CCCN(CCC)C(=O)C1=Cc2ccc(-c3cc(C(F)(F)F)cc(S(=O)(=O)N4CC(CN(C)C)C4)c3)cc2N=C(N)C1` [Bz-40], for which the EC50 in assay [1] is 0.332 µM; in assay [2], greater than 9 µM.
With `CCCN(CCc1c[nH]cn1)C(=O)C1=Cc2ccc(-c3cccc(S(=O)(=O)N4CC(CO)C4)c3)cc2N=C(N)C1` [Bz-41], the EC50 in assay [1] and in assay [2] was greater than 9 µM each time.
For the compound `CCCN(Cc1ccc(CN2CCN(C(=O)OC(C)(C)C)CC2)cc1)C(=O)C1=Cc2ccc(-c3cccc(S(=O)(=O)N4CC(CO)C4)c3)cc2N=C(N)C1` [Bz-44], in assay [2], the EC50 came to 1.02 µM.
On to `CCCN(CCC)C(=O)C1=Cc2ccc(-c3c(C)n[nH]c3C)cc2N=C(N)C1` [Bz-45], for which the EC50 in assay [1] was greater than 9 µM.
With `CCN(CC)C(=O)C1=Cc2ccc(-c3cccc(S(=O)(=O)N4CC(CO)C4)c3)cc2N=C(N)C1` [Bz-50], the EC50 in assay [2] is greater than 9 µM.
Regarding `CCCNC(=O)C1=Cc2ccc(-c3cccc(S(=O)(=O)N4CC(CO)C4)c3)cc2N=C(N)C1` [Bz-58], the EC50 in assay [1] and in assay [2] was greater than 9 µM each time.
For the compound `CCCN(Cc1ccc(CN)cc1)C(=O)C1=Cc2ccccc2N=C(N)C1` [Bz-59], in assay [1], the EC50 was greater than 9 µM.
Same read-out and setting: the value for `CCCN(CCOC)C(=O)C1=Cc2ccc(-c3cccc(S(=O)(=O)N4CC(CO)C4)c3)cc2N=C(N)C1` [Bz-60] was greater than 9 µM.
On to `CCCN(CCc1ccc(OC)cc1)C(=O)C1=Cc2ccc(-c3cccc(S(=O)(=O)N4CC(CN)C4)c3)cc2N=C(N)C1` [Bz-61], for which the EC50 in assay [1] is greater than 9 µM; in assay [2], 5.85 µM.
In the case of `CCCN(Cc1ccc(CN(C)C)cc1)C(=O)C1=Cc2ccc(-c3cccc(S(=O)(=O)N4CC(CN)C4)c3)cc2N=C(N)C1` [Bz-62], the EC50 in assay [1] and in assay [2] was greater than 9 µM throughout.
Regarding `CCCN(CCC)C(=O)C1=Cc2ccc(C(=O)COC)cc2N=C(N)C1` [Bz-65], the EC50 is 3.93 µM in assay [1] and 5.9 µM in assay [2].
For `CCCN(NCC)C(=O)C1=Cc2ccc(-c3cccc(S(=O)(=O)N4CC(CO)C4)c3)cc2N=C(N)C1` [Bz-71], in assay [1], the EC50 was greater than 9 µM.
The same measure, in the same setting: the value for `CCCN(CCC)C(=O)C1=Cc2ccc(CCCCCN)cc2N=C(N)C1` [Bz-74] was greater than 9 µM; that for `CCCN(CCC(F)(F)F)C(=O)C1=Cc2ccc(C(=O)Nc3ccccc3)cc2N=C(N)C1` [Bz-75] was greater than 9 µM.

These data come from patent publication US12570610B2, “Macromolecule-supported aminobenzazepine compounds” (Bolt Biotherapeutics, Inc., priority 2019, dated 2026).
